The test system of one test is HeLa. Description: Antiproliferative activity against human HeLa cells assessed as inhibition of cell growth by MTT assay. The class given is functional, cell-based.
For another test, the system named is A549. The experiment in a line: Antiproliferative activity against human A549 cells assessed as inhibition of cell growth by MTT assay. It counts as functional, cell-based.
The test system of a further test is MCF7. Description: Antiproliferative activity against human MCF7 cells assessed as inhibition of cell growth by MTT assay. It counts as functional, cell-based. (Tetrazolium assays rely on reduction of a dye to a coloured formazan, in cell work by metabolically active cells.)
Another test deals with HT-29. Description: Antiproliferative activity against human HT-29 cells assessed as inhibition of cell growth by MTT assay. The class given is functional, cell-based.
The next test has as its system HepG2. The experiment in a line: Antiproliferative activity against human HepG2 cells assessed as inhibition of cell growth by MTT assay. It counts as functional, cell-based.
A short description of test [1]: Antioxidant activity assessed as DPPH radical scavenging activity incubated for 30 mins in dark by absorbance based analysis. The class given is functional. (In general: The DPPH test is a chemical assay of radical scavenging.)

pIC50: −log10 of the molar value.

Usually pIC50 stands for the negative decadic logarithm of the IC50, by convention in mol/L. For the compound `COc1cc(/C=C/C(=O)C(=Cc2ccco2)C(=O)/C=C/c2ccc(OCCCO[N+](=O)[O-])c(OC)c2)ccc1OCCCO[N+](=O)[O-]`, the pIC50 was 5.12 in the test on HeLa; 5.69 in the test with A549; 5.44 with MCF7; 5.60 with HT-29; 5.76 with HepG2. In test [1], the Activity entry is “Weak_effect; Compound Showed Weak Effect Compared With Vitamin C”.

For `COc1cc(/C=C/C(=O)C(=Cc2ccco2)C(=O)/C=C/c2ccc(OCCO[N+](=O)[O-])c(OC)c2)ccc1OCCO[N+](=O)[O-]`, the pIC50 with HeLa was 4.85; in the test with A549, 6.10; in the test with MCF7, 5.63; in the test on HT-29 it was 5.89; with HepG2, 5.79. Further, the Activity result in test [1] is “Weak_effect; Compound Showed Weak Effect Compared With Vitamin C”.

`COc1cc(/C=C/C(=O)C(=Cc2ccco2)C(=O)/C=C/c2ccc(OCCCCO[N+](=O)[O-])c(OC)c2)ccc1OCCCCO[N+](=O)[O-]`: the pIC50 in the test on HeLa is 4.79; in the test with A549, 5.54; in the test with MCF7, 4.95; in the test on HT-29, 5.34; in the test with HepG2, 5.67. In addition, the Activity result in test [1] was “Weak_effect; Compound Showed Weak Effect Compared With Vitamin C”.

Turning to `COc1cc(/C=C/c2cc(/C=C/c3ccc(OCC4CC4)c(OC)c3)n(-c3ccc(C(=O)OCCCO[N+](=O)[O-])cc3)n2)ccc1OCC1CC1`, the pIC50 in the test with HeLa, with A549, with MCF7, in the test on HT-29 and in the test on HepG2 was under 4.30 each time.

`COc1cc(/C=C/c2cc(/C=C/c3ccc(OCCCO[N+](=O)[O-])c(OC)c3)n(-c3ccccc3)n2)ccc1OCCCO[N+](=O)[O-]`: the pIC50 in the test on HeLa, in the test on A549, in the test with MCF7, in the test with HT-29 and in the test with HepG2 was under 4.30 in each case.

As for `COc1cc(/C=C/c2cc(/C=C/c3ccc(OCCO[N+](=O)[O-])c(OC)c3)n(-c3ccccc3)n2)ccc1OCCO[N+](=O)[O-]`, the pIC50 in the test on HeLa, with A549, in the test with MCF7, with HT-29 and with HepG2 was under 4.30 in each case.

As to `COc1cc(/C=C/c2cc(/C=C/c3ccc(OCCCO[N+](=O)[O-])c(OC)c3)n(Cc3ccccc3)n2)ccc1OCCCO[N+](=O)[O-]`, the pIC50 in the test with HeLa, with A549, with MCF7, in the test on HT-29 and in the test with HepG2 was under 4.30 throughout.

For `COc1cc(/C=C/c2cc(/C=C/c3ccc(OCCCO[N+](=O)[O-])c(OC)c3)n(-c3ccc(C(F)(F)F)cc3)n2)ccc1OCCCO[N+](=O)[O-]`, the negative-log IC50 (pIC50) in the test on HeLa, with A549, in the test on MCF7, with HT-29 and in the test with HepG2 was under 4.30 each time.

Turning to `COc1cc(/C=C/c2cc(/C=C/c3ccc(OCCCO[N+](=O)[O-])c(OC)c3)n(-c3ccccc3F)n2)ccc1OCCCO[N+](=O)[O-]`, the pIC50 with HeLa, with A549, with MCF7, in the test on HT-29 and in the test on HepG2 was under 4.30 each time.

Take `COc1cc(/C=C/c2cc(/C=C/c3ccc(OCCCCO[N+](=O)[O-])c(OC)c3)n(-c3ccccn3)n2)ccc1OCCCCO[N+](=O)[O-]`: the pIC50 in the test on HeLa, with A549, in the test with MCF7, in the test on HT-29 and in the test with HepG2 was under 4.30 each time.

Regarding `COc1cc(/C=C/c2cc(/C=C/c3ccc(OCCCCO[N+](=O)[O-])c(OC)c3)n(-c3ccc(C(F)(F)F)cc3)n2)ccc1OCCCCO[N+](=O)[O-]`, the pIC50 in the test on HeLa, in the test on A549, with MCF7, with HT-29 and in the test with HepG2 was under 4.30 throughout.

The values are drawn from ChEMBL document CHEMBL6114997, “New curcumin derivative induces ferroptosis in MCF-7 cells through activating SLC7A11/GPX4 axis” (Bioorg Med Chem, 2025).
